Reference: patent US6696483B2, “Inhibitors of angiogenesis and tumor growth for local and systemic administration” (OncoPharmaceutical, Inc., priority 2000, dated 2004)

Assays:
[1] = tested on: LL/2 (Lewis lung carcinoma) tumors; test: In vivo efficacy in mice carrying LL/2 (Lewis lung carcinoma) tumors; design: species or system B6D2F1 mice
Method: (§1) For Examples 1-3, the pharmaceutical formulations were prepared just prior to use. Various amounts of brefeldin A (BFA) (mg of drug/kg animal's body weight) were weighed out, and solvent (varying amounts of ethanol in saline) was then added. The mixtures were either vortexed (mechanical mixing) or sonicated until the drug was either completely dissolved or only a very small amount appeared to settle in the bottom the test tube.
(§2) In vivo efficacy was determined using either inbred C3H or hybrid B6D2F1 mice carrying RIF-1 (radiation induced firbrosarcoma-1) or LL/2 (Lewis lung carcinoma) tumors, respectively. The tumor cells were kept in a CO2/O2 atmosphere at 37° C., and grown in monolayers. When confluent, cells were rinsed with ice-cold phosphate buffered ethylenediamine tetraacetic acid (EDTA), followed by trypsin/EDTA treatment for about 3 minutes at 37° C. The cells were then dispersed by the addition of medium with serum and spun down using a centrifuge, then washed once in phosphate-buffered saline (PBS) prior to suspending at the desired density (cells/ml) in sterile Hank's balanced salt solution (HBSS). The cells were then inoculated subcutaneously (s.c.) with either a 100 μl or 50 μl injection on one flank of each mouse to provide the desired number of cells (1.25×10^5, 2.5×10^5 or 5.0×10^5) per site.
(§3) Five to ten days after inoculation with the tumor cells, treatment was initiated with either solvent alone for control groups, or solvent with BFA for the treated group. The mice were treated daily for one to two weeks either intraperitoneally (i.p.) or intravenously (i.v.). The mice (weighing approximately 25 g each) were observed daily for the absence or presence of a tumor, as well as for signs of gross toxicity such as weight loss, hair loss, lethargy, and/or dehydration. The body weight for each mouse was recorded daily until the end of treatment. At the termination of treatment, mice were euthanized, and their tumors removed and stored in formalin for sectioning and staining in future studies. In some experiments, organs such as the kidney, spleen, liver, and brain were also stored in formalin (10%) for future histological analysis of organ toxicity.
The toxicity and efficacy of brefeldin A (BFA, 11 mg/kg) in 10% ethanol (in saline) were determined in B6D2F1 mice. On Day 0, mice were inoculated on one flank with 1.25×10^5 LL/2 tumor cells in 50 μl liquid carrier. […]
All mice were observed daily for signs of gross toxicity and the absence or presence of tumor growth. […] Efficacy was determined by delay in the appearance of the tumor in the experimental group relative to control.
(§4) The efficacy of brefeldin A (BFA, 12 mg/kg) in 10% ethanol (in saline) was evaluated in B6D2F1 mice with a higher tumor cell burden than used in Example 1. […]

[2] = Gross toxicity and organ histology in LL/2 tumor-bearing mice; assay type: in vivo, B6D2F1 mice
Method: as §3
The toxicity and efficacy of brefeldin A (BFA, 11 mg/kg) in 10% ethanol (in saline) were determined in B6D2F1 mice. On Day 0, mice were inoculated on one flank with 1.25×10^5 LL/2 tumor cells in 50 μl liquid carrier. Five days after inoculation with the tumor cells, mice were randomized into control and treated groups. The mice received daily treatments (0.2 ml, i.p.) for two weeks with either 10% ethanol in phosphate-buffered saline (control) or 10% ethanol in phosphate-buffered saline with BFA (treated). Each mouse in the treated group received a total dose of 0.28 mg of BFA daily.
All mice were observed daily for signs of gross toxicity and the absence or presence of tumor growth. In addition, all mice were weighed daily. […] Efficacy was determined by delay in the appearance of the tumor in the experimental group relative to control.
as §4
All mice were observed daily for signs of gross toxicity and the absence or presence of tumor growth. […] Efficacy was determined by delay in the appearance of tumor in the experimental group relative to control.

RIF-1 tumors = test: In vivo efficacy in mice carrying RIF-1 (radiation induced fibrosarcoma-1) tumors; design: species or system C3H mice; settings: Example 3
Method: as §1, §2
Five to ten days after inoculation with the tumor cells, treatment was initiated with either solvent alone for control groups, or solvent with BFA for the treated group. The mice were treated daily for one to two weeks either intraperitoneally (i.p.) or intravenously (i.v.). […] The body weight for each mouse was recorded daily until the end of treatment. […]
The efficacy of a lower dose of BFA (8 mg/kg), in a lower concentration of ethanol (1.0%) in phosphate-buffered saline, relative to Examples 1 and 2 was determined. […]
(§5) All mice were observed daily for signs of gross toxicity and the absence or presence of tumor growth. […] Efficacy was determined by tumor growth delay as evidenced by the size and appearance of the tumor in the treated group relative to control.

[3] = Gross toxicity in RIF-1 tumor-bearing mice; assay type: in vivo, C3H mice; settings: Example 3; 8 mg/kg i.v. daily for eight days
Method: as §3
On Day 0, C3H mice were inoculated on one flank (s.c.) with 2.5×10^5 RIF-1 tumor cells in 50 μl liquid carrier. Ten days following tumor cell inoculation, mice were randomized into control and treated groups. […]
as §5

[4] = tested on: Human umbilical vein endothelial cells (HUVECs); test: In vitro capillary tube formation assay on Matrigel; assay type: cell-based; settings: tested concentrations of 4.0 nM and above (4.0, 40, 100, 400 nM); 18 hours
Method: The in vitro influence of brefeldin A on angiogenesis was evaluated. Human umbilical vein endothelial cells (HUVECs) were cultured in medium EBM-2 complete™ (BioWhittaker, Inc., Baltimore, Md.). Matrigel® (200 μl, synthetic basement membrane substrate) was pipetted gently to avoid air bubbles on the surface of a 48-well plate. Following application of Matrigel® substrate, the plate was placed in an incubator at 37° C. for 30 minutes to promote gelling. HUVECs were harvested from tissue culture flasks, counted, and diluted to 15×10^4/ml. The cell suspension (200 μl) was added to the Matrigel® substrate, such that the final concentration was 30,000 cells/well. Two wells/concentration were used. For evaluation of antiangiogenic activity, a 0.4 mM BFA stock (in dimethyl sulfoxide, DMSO) was diluted to a final concentration of 400, 100, 40, 4.0, and 0.4 nM before adding cells. The final DMSO concentration was 0.02%. […] To evaluate capillary tube formation, plates were viewed under phase contrast low magnification (10×), a photo reticule was used to define the area, and the capillary tube network was counted within the designated area. Only complete tubes that were inside the rectangle were counted.
Data were expressed as percent of complete capillary tube formation relative to untreated control cultures incubated under the same conditions (control=100%). […]

[5] = tested on: rat aortic ring explant cultures; test: Ex vivo rat aortic ring explant assay (microvessel outgrowth); assay type: cell-based, Sprague-Dawley rats; settings: tested concentrations of 200 nM and above (200, 400, 1000 nM); Day 7; average of three trials
Method: The ex vivo influence of brefeldin A on angiogenesis was evaluated as follows. Male Sprague-Dawley rats weighing approximately 250 g were anesthetized and their thoracic aortas removed carefully to avoid damaging the vessel wall. Aortas were rinsed in serum-free endothelial cell basal medium, the surrounding adventitia removed and cleaned, and the vessels cut into two millimeter (mm) concentric rings. Each ring was embedded in freshly prepared rattail collagen. Following gelation for 30 minutes at 37° C., collagen gel cultures were transferred to 16 mm wells (4 well plate), each containing 0.5 ml of serum free (MCBD 131) medium. Brefeldin A was dissolved in DMSO and mixed with serum free medium at final concentrations of 40 nM 100 nM, 200 nM, 400 nM, and 1000 nM immediately prior to the addition of media to collagen-embedded rat aortic ring explant cultures. The final concentration of DMSO in treated and control cultures was 0.02%. Explant cultures were incubated at 35.5° C. in a 5% CO2 humidified atmosphere, and the media replaced every two days over the course of the 8-10 day study. Visual counts of microvessel outgrowths from replicate explant cultures were performed using bright field microscopy during microvessel peak growth (Day 7).
Data were expressed as percent inhibition of microvessel growth relative to vehicle-treated control cultures (FIG. 8). […]

[6] = Example 2, 12 mg/kg i.p. daily for two weeks, 5.0×10^5 LL/2 cells

With `C[C@H]1CCC/C=C/[C@@H]2C[C@H](O)C[C@H]2[C@H](O)/C=C/C(=O)O1` [brefeldin A] as the compound, how does the “presence of tumor (gross observation, FIG. 1)” value ([1]; Example 1, 11 mg/kg i.p. daily for two weeks in 10% ethanol, 1.25×10^5 LL/2 cells) read?
Its value is “no evidence of tumor was observed”.

And the “tumor at inoculation site (skin sample histology, FIG. 2A)” value ([1]; Example 1, 11 mg/kg i.p. daily for two weeks, after final treatment)?
The value was “No evidence of tumor at the injection site”.

What about the “tumor growth delay (FIG. 3)” value [1, 6] of the same compound?
The value was “significant tumor growth delay”.

What about the “tumor size reduction relative to control group” value [1, 6] of the same compound?
The value was “at least 25%”.

What about the “gross toxicities (weight loss, hair loss, lethargy, dehydration)” value ([2]; Example 1, 11 mg/kg i.p. daily for two weeks) of the same compound?
The value was “not observed”.

What about the “toxicity-related effects in brain, kidney, liver, spleen” value ([2]; Example 1, 11 mg/kg i.p. daily for two weeks, H&E histology) of the same compound?
Its value is “no toxicity-related effects”.

What about the “gross toxicity (weight loss (FIG. 4), hair loss, lethargy)” value ([2]; Example 2, 12 mg/kg i.p. daily for two weeks) of the same compound?
The value was “no gross toxicity”.

What about the “vessel density in tumor sections (qualitative)” value (RIF-1 tumors; 8 mg/kg i.v. daily for eight days) of the same compound?
Its value is “less vessel density”.

What about the “tumor size relative to control (FIG. 6)” value (RIF-1 tumors; 8 mg/kg i.v. daily for eight days in 1.0% ethanol, 2.5×10^5 RIF-1 cells) of the same compound?
Its value is “significantly smaller”.

And the “tumor invasiveness on harvesting” value (RIF-1 tumors; 8 mg/kg i.v. daily for eight days, control tumors penetrated muscle)?
Its value is “remained relatively localized and relatively easy to remove”.

And the “gross toxicity (weight loss, hair loss, lethargy, dehydration)” value [3]?
Its value is “no gross toxicity was observed”.

What about the “inhibition of angiogenesis (complete capillary tube formation relative to untreated control)” value [4] of the same compound?
The value was “more than 50%”.

What about the “inhibition of angiogenesis (microvessel growth relative to vehicle-treated control)” value [5] of the same compound?
The value was “more than 50%”.
